The values that follow come from patent publication US7259236B2, “RBP1L1, a novel retinoblastoma binding protein-related gene encoding an antigenic epitope and methods of using thereof” (Regents of the University of California, priority 2001, dated 2007).

For experiment [1], the system named is purified specific IgG binding to GST-RBP1L1 fusion protein. Description: Inhibition by synthetic peptides of purified specific IgG binding to GST-RBP1L1 fusion protein (Western blot). The conditions noted are these: peptide 5 μg/ml, purified specific IgG 0.5 μg/ml, fusion protein from clone 151. Details: species or system human. The procedure: To determine the minimal number of amino acids necessary for antibody binding, synthetic peptides of various lengths were tested for their ability to inhibit the binding of purified specific IgG to GST-RBP1L1 fusion protein by Western blot analysis. The synthetic peptides tested were:
[…] The antigen and purified IgG mixture was agitated at 4° C. overnight, and the inhibition of antibody binding was assessed by Western blotting using GST-RBP1L1 fusion protein as the target antigen.
The minimum number of amino acids required for the antibody binding was determined by testing various truncated synthetic peptides in ELISAs and on Western blots. The following set of peptides was generated by sequentially reducing the 10-amino acid peptide by one amino acid from either the amino terminus or the carboxyl terminus:
(§1) The wells of a 96-well ELISA plate were coated with 100 μl of a peptide (5 μg/ml). The specific human IgG (200 μg/ml) was serially diluted from 1:250 to 1:4,000.
(In general: In western blotting, separated proteins are transferred to a membrane and probed.)

A further experiment has as its system purified specific IgG. Description: ELISA with synthetic peptide antigens. The conditions noted are these: ELISA and Western blot, truncated synthetic peptides; plate coated with 5 μg/ml peptide, IgG 200 μg/ml diluted 1:250 to 1:4,000. It is filed as binding, human. The protocol: The binding of purified specific IgG to synthetic peptides was assessed by ELISA. 96-well polystyrene plates (Reacti-Bind maleic anhydride-activated plates, Pierce) coated with each of the peptides (100 μl of 5 μg/ml) in PBS, incubated overnight at 4° C., and then blocked with 1% bovine serum albumin. Purified specific IgG (200 μg/ml) was serially diluted 1:250, 1:500, 1:1000, 1:2000, and 1:4000, then added in triplicate to peptide-coated wells (500 ng per well), and incubated for 3 hours at room temperature. Peroxidase-conjugated goat anti-human IgG (Pierce) was added at room temperature for 1 hour, followed by the addition of 400 μg/ml of o-phenylenediamine dihydrochloride in peroxide substrate solution. Reactivity was measured at 490 nm. Background absorbance without the primary antibody was subtracted from each sample's absorbance.
as §1

As for IKPSLGSKK (listed as Homo sapiens), the “ability to competitively inhibit the binding of purified specific IgG to the GST-RBP1L1 fusion protein” value in experiment [1] is reported as “completely inhibited”. Besides, the “epitope recognized by the purified specific human IgG” value in the experiment with purified specific IgG was “minimal epitope recognized”.
With IKPSLGSKKN (listed as Homo sapiens), in experiment [1], the “ability to competitively inhibit the binding of purified specific IgG to the GST-RBP1L1 fusion protein” value is “completely inhibited”.
